Where “and” joins values, the source holds several entries; their conditions need not be identical. Identical values can stand only once. Counter-ions that a name gives are not always drawn.
Molecular target: T1, recombinant guanylate cyclase reporter cell line (Rattus norvegicus, UniProt P19686+P20595)
T1 construct: expressed in transfected cells; host or cells: recombinant reporter cell line
T1 sequence (P19686 1-690): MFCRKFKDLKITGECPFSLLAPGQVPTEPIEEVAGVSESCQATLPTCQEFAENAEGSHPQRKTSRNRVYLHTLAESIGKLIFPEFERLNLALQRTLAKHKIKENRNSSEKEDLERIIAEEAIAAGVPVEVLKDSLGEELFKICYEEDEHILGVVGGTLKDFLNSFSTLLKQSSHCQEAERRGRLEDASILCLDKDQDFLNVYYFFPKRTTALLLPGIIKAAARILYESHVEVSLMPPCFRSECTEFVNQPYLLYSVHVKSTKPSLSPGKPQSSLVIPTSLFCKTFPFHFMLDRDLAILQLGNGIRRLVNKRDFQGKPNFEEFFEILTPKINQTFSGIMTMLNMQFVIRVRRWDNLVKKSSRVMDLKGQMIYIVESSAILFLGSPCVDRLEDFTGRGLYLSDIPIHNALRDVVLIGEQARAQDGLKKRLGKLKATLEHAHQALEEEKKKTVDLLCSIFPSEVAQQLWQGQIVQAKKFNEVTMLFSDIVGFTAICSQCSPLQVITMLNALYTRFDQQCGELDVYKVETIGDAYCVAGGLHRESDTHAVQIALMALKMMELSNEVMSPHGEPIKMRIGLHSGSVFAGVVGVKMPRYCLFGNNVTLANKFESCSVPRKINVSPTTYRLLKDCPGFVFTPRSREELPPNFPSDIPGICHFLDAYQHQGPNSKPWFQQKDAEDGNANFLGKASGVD
T1 sequence (P20595 1-619): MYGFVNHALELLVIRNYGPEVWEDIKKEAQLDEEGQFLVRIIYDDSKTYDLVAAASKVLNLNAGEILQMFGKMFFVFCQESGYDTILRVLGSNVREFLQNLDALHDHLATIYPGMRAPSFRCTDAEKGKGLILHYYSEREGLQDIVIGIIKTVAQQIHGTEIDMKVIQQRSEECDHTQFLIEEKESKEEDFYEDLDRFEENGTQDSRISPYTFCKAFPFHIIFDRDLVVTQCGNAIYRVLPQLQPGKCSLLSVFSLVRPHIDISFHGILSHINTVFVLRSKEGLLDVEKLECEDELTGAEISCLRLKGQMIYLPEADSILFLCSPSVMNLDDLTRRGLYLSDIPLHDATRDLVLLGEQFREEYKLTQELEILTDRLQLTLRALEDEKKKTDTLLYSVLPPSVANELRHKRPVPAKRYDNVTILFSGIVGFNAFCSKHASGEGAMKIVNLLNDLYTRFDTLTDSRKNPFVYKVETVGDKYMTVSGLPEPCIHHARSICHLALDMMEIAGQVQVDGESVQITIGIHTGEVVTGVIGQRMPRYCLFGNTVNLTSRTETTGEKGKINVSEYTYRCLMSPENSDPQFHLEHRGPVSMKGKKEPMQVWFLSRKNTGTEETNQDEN
Assay: Effect on a recombinant guanylate cyclase reporter cell line
Assay type: cell-based
Conditions: MEC = minimum effective concentration; in some cases mean values for individual determinations
Experimental: B-2. Effect on a Recombinant Guanylate Cyclase Reporter Cell Line
The cellular effect of the inventive compounds is determined using a recombinant guanylate cyclase reporter cell line, as described in F. Wunder et al., Anal. Biochem. 339, 104-112 (2005).
Representative MEC values (MEC=minimum effective concentration) for the inventive compounds are shown in the table below (in some cases as mean values for individual determinations): […]

MEC | SMILES
3.0 µM | COCCc1nnc(-c2c(C)nc3c(OCC4CCCCC4)cccn23)o1 [Example 68]
3.0 µM | Cc1nc(-c2nnc(-c3c(C)nc4c(OCC5CCCCC5)cccn34)o2)cs1 [Example 69]
3.0 µM | CCC(C)c1nnc(-c2c(C)nc3c(OCC4CCCCC4)cccn23)o1 (centres unmarked) [Example 70]
3.0 µM | Cc1nc2c(OCC3CCCCC3)cccn2c1-c1nnc(CN2CCCC2=O)o1 [Example 71]
3.0 µM | Cc1nc(C)n(Cc2nnc(-c3c(C)nc4c(OCC5CCCCC5)cccn34)o2)n1 [Example 72]
3.0 µM | Cc1nc2c(OCC3CCCCC3)cccn2c1-c1nnc(C2CCS(=O)(=O)C2)o1 (centres unmarked) [Example 73]
3.0 µM | Cc1nc2c(OCC3CCCCC3)cccn2c1-c1nnc(C2CC2)o1 [Example 74]
3.0 µM | Cc1cc(OCc2c(F)cccc2F)c2nc(C)c(-c3cncc(C(=O)O)c3)n2c1 [Example 76, 5-{8-[(2,6-Difluorobenzyl)oxy]-2,6-dimethylimidazo[1,2-a]pyridin-3-yl}nicotinic acid trifluoroacetate]
0.1 µM | Cc1cc(OCc2c(F)cccc2F)c2nc(C)c(-c3cncc(C(N)=O)c3)n2c1 [Example 77, 5-{8-[(2,6-Difluorobenzyl)oxy]-2,6-dimethylimidazo[1,2-a]pyridin-3-yl}nicotinamide]
0.1 µM | Cc1cc(OCc2c(F)cccc2F)c2nc(C)c(-c3cncc(C(=O)NC4CC4)c3)n2c1 [Example 78, N-Cyclopropyl-5-{8-[(2,6-difluorobenzyl)oxy]-2,6-dimethylimidazo[1,2-a]pyridin-3-yl}nicotinamide trifluoroacetate]
0.3 µM | Cc1cc(OCc2c(F)cccc2F)c2nc(C)c(-c3nccc(C(N)=O)n3)n2c1 [Example 80, 2-{8-[(2,6-Difluorobenzyl)oxy]-2,6-dimethylimidazo[1,2-a]pyridin-3-yl}pyrimidine-4-carboxamide trifluoroacetate]
3.0 µM | Cc1cc(OCc2c(F)cccc2F)c2nc(C)c(-c3nccc(C(=O)NC4CC4)n3)n2c1 [Example 81, N-Cyclopropyl-2-{8-[(2,6-difluorobenzyl)oxy]-2,6-dimethylimidazo[1,2-a]pyridin-3-yl}pyrimidine-4-carboxamide trifluoroacetate]
0.1 µM | Cc1cc(OCc2c(F)cccc2F)c2nc(C)c(-c3cn[nH]n3)n2c1 [Example 82, 8-[(2,6-difluorobenzyl)oxy]-2,6-dimethyl-3-(2H-1,2,3-triazol-4-yl)imidazo[1,2-a]pyridine]
0.3 µM | Cc1cc(OCc2c(F)cccc2F)c2nc(C)c(-c3cnn(CC(C)(C)N)n3)n2c1 [Example 83, 1-(4-{8-[(2,6-Difluorobenzyl)oxy]-2,6-dimethylimidazo[1,2-a]pyridin-3-yl}-2H-1,2,3-triazol-2-yl)-2-methylpropan-2-amine]
1.0 µM | Cc1cc(OCc2ncccc2F)c2nc(C)c(-c3cn[nH]c3)n2c1 [Example 84, 8-[(3-fluoropyridin-2-yl)methoxy]-2,6-dimethyl-3-(1H-pyrazol-4-yl)imidazo[1,2-a]pyridine]
3.0 µM | Cc1cc(OCc2ncccc2F)c2nc(C)c(-c3cnn(CC(C)(C)N)c3)n2c1 [Example 85, 1-(4-{8-[(3-Fluoropyridin-2-yl)methoxy]-2,6-dimethylimidazo[1,2-a]pyridin-3-yl}-1H-pyrazol-1-yl)-2-methylpropan-2-amine]
0.03 µM | Cc1cc(OCc2c(F)ccc(F)c2F)c2nc(C)c(-c3cn[nH]c3)n2c1 [Example 86, 2,6-dimethyl-3-(1H-pyrazol-4-yl)-8-[(2,3,6-trifluorobenzyl)oxy]imidazo[1,2-a]pyridine]
0.1 µM | Cc1cc(OCc2c(F)ccc(F)c2F)c2nc(C)c(-c3cnn(CC(C)(C)N)c3)n2c1 [Example 87, 1-(4-{2,6-Dimethyl-8-[(2,3,6-trifluorobenzyl)oxy]imidazopyridin-3-yl}-1H-pyrazol-1-yl)-2-methylpropan-2-amine]
0.01 µM | Cc1cc(OCc2c(F)cccc2F)c2nc(C)c(-c3cn[nH]c3)n2c1 [Example 88, 8-[(2,6-difluorobenzyl)oxy]-2,6-dimethyl-3-(1H-pyrazol-4-yl)imidazo[1,2-a]pyridine]
0.03 µM | Cc1cc(OCc2c(F)cccc2F)c2nc(C)c(-c3cnn(CC(C)(C)N)c3)n2c1 [Example 89, 1-(4-{8-[(2,6-Difluorobenzyl)oxy]-2,6-dimethylimidazo[1,2-a]pyridin-3-yl}-1H-pyrazol-1-yl)-2-methylpropan-2-amine]
0.3 µM | Cc1nc2c(OCc3c(F)cccc3F)cccn2c1-c1cnn(CC(C)(C)N)c1 [Example 90, 1-(4-{8-[(2,6-Difluorobenzyl)oxy]-2-methylimidazo[1,2-a]pyridin-3-yl}-1H-pyrazol-1-yl)-2-methylpropan-2-amine]
0.1 µM | Cc1cc(OCc2c(F)cccc2F)c2nc(C)c(-c3cnn(CCO)c3)n2c1 [Example 91, 2-(4-{8-[(2,6-difluorobenzyl)oxy]-2,6-dimethylimidazo[1,2-a]pyridin-3-yl}-1H-pyrazol-1-yl)ethanol]
0.03 µM | Cc1cc(OCc2c(F)cccc2F)c2nc(C)c(-c3cnn(CCN4CCC(F)(F)CC4)c3)n2c1 [Example 92, 8-[(2,6-Difluorobenzyl)oxy]-3-{1-[2-(4,4-difluoropiperidin-1-yl)ethyl]-1H-pyrazol-4-yl}-2,6-dimethylimidazo[1,2-a]pyridine]
0.1 µM | Cc1cc(OCc2c(F)cccc2F)c2nc(C)c(-c3cnn(CCN4CCS(=O)(=O)CC4)c3)n2c1 [Example 93, 8-[(2,6-Difluorobenzyl)oxy]-3-{1-[2-(1,1-dioxidothiomorpholin-4-yl)ethyl]-1H-pyrazol-4-yl}-2,6-dimethylimidazo[1,2-a]pyridine]
0.3 µM | Cc1cc(OCc2c(F)cccc2F)c2nc(C)c(-c3cnn(CCN4CCN(C)CC4)c3)n2c1 [Example 94, 8-[(2,6-Difluorobenzyl)oxy]-2,6-dimethyl-3-{1-[2-(4-methylpiperazin-1-yl)ethyl]-1H-pyrazol-4-yl}imidazo[1,2-a]pyridine]
0.3 µM | Cc1cc(OCc2c(F)cccc2F)c2nc(C)c(-c3cnn(CCN4CC(O)C4)c3)n2c1 [Example 95, 1-[2-(4-{8-[(2,6-Difluorobenzyl)oxy]-2,6-dimethylimidazo[1,2-a]pyridin-3-yl}-1H-pyrazol-1-yl)ethyl]azetidin-3-ol trifluoroacetate]
0.065 µM | Cc1cc(OCc2c(F)cccc2F)c2nc(C)c(-c3cnn(CCS(C)(=O)=O)c3)n2c1 [Example 96, 8-[(2,6-Difluorobenzyl)oxy]-2,6-dimethyl-3-{1-[2-(methylsulphonyl)ethyl]-1H-pyrazol-4-yl}imidazo[1,2-a]pyridine]
0.3 µM | Cc1cc(OCc2c(F)cccc2F)c2nc(C)c(-c3cnn(CCOC(N)=O)c3)n2c1 [Example 97, 2-(4-{8-[(2,6-Difluorobenzyl)oxy]-2,6-dimethylimidazo[1,2-a]pyridin-3-yl}-1H-pyrazol-1-yl)ethyl carbamate]
0.03 µM and 3.0 µM | Cc1cc(OCc2c(F)cccc2F)c2nc(C)c(-c3cnn(Cc4cc(C)on4)c3)n2c1 [Example 98, 8-[(2,6-Difluorobenzyl)oxy]-2,6-dimethyl-3-{1-[(5-methyl-1,2-oxazol-3-yl)methyl]-1H-pyrazol-4-yl}imidazo[1,2-a]pyridine]
